Experiment [1] addresses T1, rice bran phospholipase D (PLD), Oryza sativa variety Koshihikari, eluted solution Mono Q 2nd-II (Oryza sativa, UniProt Q43007).
T1 construct: processed N-terminus (residues 1-46 removed according to earlier note), precursor 812 aa
As to the kind of experiment: Km of purified rice bran PLD, fraction Mono Q 2nd-II (choline oxidase method). It counts as biochemical. To be noted: Mono Q 2nd-II fraction; phosphatidylcholine as the substrate, choline quantified by choline oxidase method. The protocol: (§1) For the purification, a reference relating to the purification of rice bran PLD (Takano et al., J. Jpn. Soc. Food Sci. Technol., 34, 8-13 (1987)) was referred. The enzyme activity was measured by using phosphatidylcholine as the substrate and by quantifying the choline generated by the enzyme reaction by the choline oxidase method (Imamura et al., J. Biochem. 83, 677-680 (1978)). The enzyme reaction, however, was stopped by heat treatment at 95° C. for 5 minutes.
(§2) The two fractions were analyzed for properties of the enzymes contained therein. […] The pH stability means the range in which decrease in activity was not observed after leaving the enzyme to stand at 25° C. for 30 minutes. The temperature stability was measured by measuring remaining activity after leaving the enzyme to stand at 4° C., 25° C., 37° C. or 50° C. for 30 minutes. The substrate specificity was measured at a substrate concentration of 5 mM and is expressed as a relative activity taking the enzyme activity to phosphatidylcholine as 100.

For experiment [2], the target named is T2, rice bran phospholipase D (PLD), Oryza sativa variety Koshihikari, eluted solution Mono Q 2nd-I (Oryza sativa, UniProt Q43007).
T2 construct: processed N-terminus (residues 1-46 removed according to earlier note), precursor 812 aa
T2 sequence (Q43007 47-812 P139S): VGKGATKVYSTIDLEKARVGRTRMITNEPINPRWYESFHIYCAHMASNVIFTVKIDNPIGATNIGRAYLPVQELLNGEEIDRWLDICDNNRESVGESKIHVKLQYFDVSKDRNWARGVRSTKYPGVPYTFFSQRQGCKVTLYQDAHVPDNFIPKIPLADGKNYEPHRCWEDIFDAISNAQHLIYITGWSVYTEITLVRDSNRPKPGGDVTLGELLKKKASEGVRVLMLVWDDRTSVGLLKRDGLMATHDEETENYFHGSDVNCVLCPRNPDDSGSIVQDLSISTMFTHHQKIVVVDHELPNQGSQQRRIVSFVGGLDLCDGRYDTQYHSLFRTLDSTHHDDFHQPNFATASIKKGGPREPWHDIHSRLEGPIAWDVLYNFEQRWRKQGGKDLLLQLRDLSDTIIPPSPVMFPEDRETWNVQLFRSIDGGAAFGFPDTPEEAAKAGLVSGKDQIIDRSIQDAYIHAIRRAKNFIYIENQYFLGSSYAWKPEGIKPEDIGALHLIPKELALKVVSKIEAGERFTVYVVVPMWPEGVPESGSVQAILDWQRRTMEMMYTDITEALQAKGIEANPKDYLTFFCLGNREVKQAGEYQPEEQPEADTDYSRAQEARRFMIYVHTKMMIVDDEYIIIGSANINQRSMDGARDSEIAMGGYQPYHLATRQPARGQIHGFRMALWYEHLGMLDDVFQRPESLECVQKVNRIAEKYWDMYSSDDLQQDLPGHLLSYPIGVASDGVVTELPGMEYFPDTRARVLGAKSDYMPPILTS
In words: Km of purified rice bran PLD, fraction Mono Q 2nd-I (choline oxidase method). The class given is biochemical. To be noted: Mono Q 2nd-I fraction; phosphatidylcholine as the substrate, choline quantified by choline oxidase method. The protocol: as §1, §2

In general, Km refers to the substrate concentration at which the rate is half of its maximum.

T1 sequence (Q43007 47-812 P139S): as above

Take phosphatidylcholine: the Km in experiment [1] and in experiment [2] was 290 µM in each case.

The values above are taken from patent publication US5747327A, “Phospholipase D gene originated from plant” (priority 1993, dated 1998).
